This note sets out measurements from the NIST ThermoML archive (doi:10.1021/acs.jced.8b01256).

Numbers after ± are expanded uncertainties.

For data set [1] the following is noted: Crystal; DSC.
Data set [2] in a line: Molar enthalpy of transition or fusion. The conditions noted are these: Crystal; DSC.

With `Cc1[nH]nc2cc([N+](=O)[O-])ccc12` [3-methyl-6-nitroindazole], the Triple point temperature in data set [1] is given as 460.15 ± 1 K. For the same compound, the “Molar enthalpy of transition or fusion” value in data set [2] was 2.55 ± 0.0908 kcal/mol.
